Source: patent publication US20060084599A1, “Compositions, methods and kits relating to notch signaling” (Maine Medical Center, priority 2003, published 2006)
One block for each compound: values may come before it.

Assays:
[1] = tested on: NIH 3T3 cell transfectants; assay: Colony formation in soft agar (anchorage-independent growth); format: cell-based, murine
Description: Clonal populations of NIH 3T3 cells stably transfected with vector control, soluble Jagged1 (sJ1), constitutively active Notch1 (caN1), constitutively active Notch 2 (caN2), dominant negative Notch 1 (dnN1), dominant negative Notch 2 (dnN2), an oncogenic mutant of FGF1 engineered with the FGF4 signal peptide sequence (hst-β (FGF4):FGF1), or constitutively active oncogenic Ras construct (caRas), were plated on 6 cm tissue culture dishes with 0.5% agar in an overlay containing DMEM (Gibco BRL) media, 10% bovine calf serum (BCS; Hyclone), and 0.33% agar at 1.5×10^3 cells/dish. As indicated, some dishes were also treated with 1 μM of the FGFR1-specific inhibitor, PD166866 (Panek et al., 1998, J. Pharmacol. Exp. Ther. 286: 569-577) and/or 10 ng/ml recombinant human FGF1 and 10 U/ml heparin (Sigma). Cells were fed with 0.5 ml of media with or without FGF1 and/or the FGFR1-specific inhibitor every 3 days as indicated. Twenty days after plating, colonies were stained with p-iodonitrotetrazolium violet (Sigma) for visualization. Quantitation of colony formation was achieved by counting all p-iodonitrotetrazolium violet-stained colonies consisting of more than 4 cells under a Zeiss Stemi SVII Apo dissecting microscope.
Anchorage-Dependent and -Independent Cell Growth Assays. Approximately 3×10^4 cells were plated on fibronectin (10 μg/cm^2)-coated in 12-well cell culture dishes (Falcon) in DMEM containing 10% BCS (v/v) (Hyclone). Three wells of the individual NIH 3T3 cell transfectants were harvested every third day and cell number was quantitated using a hemocytometer. Anchorage-independent cell growth was evaluated by plating in duplicate approximately 1.7×10^3 cells in DMEM containing 0.5% (w/v) agar (Sigma) 10% (v/v) BCS into 5 cm plastic dishes (Falcon) as previously described (Small et al., 2003, J. Biol. Chem. 278:16405-16413).

[2] = tested on: NIH 3T3 stable transfectants; assay: FGF1-induced spheroid formation; format: cell-based, murine
Description: Clonal populations of NIH 3T3 stable transfectants were resuspended and grown in media containing 10% BCS, 10% BCS containing 1 μM PD166866, 10% BCS containing 10 ng/ml recombinant human FGF1 and 10 U/ml heparin or 10% BCS containing 10 ng/ml recombinant human FGF 1, 10 U/ml heparin and 1 μM PD 166866 as indicated in the figure legend. Approximately 2×10^5 cells were plated per well (6-well dish) and three days after plating, phase-contrast micrographs of the cells were taken.

[3] = tested on: CSL1-dependent transcription; assay: Dual luciferase reporter assay of CSL1-dependent transcription (Example 2); format: cell-based, murine
Description: Insert-less vector control and sJ1 NIH 3T3 cell transfectants (approximately 3×10^4) were plated on fibronectin-coated (10 μg/cm^2) cell culture dishes and the cells were transiently transfected at approximately 50% confluency with 500 ng of a luciferase construct containing four tandem copies of the CBF1 response element (Small et al., 2001, J. Biol. Chem. 276:32022-32030).
Cotransfection with 100 ng of the TK Renilla (Promega) construct was used as an internal control for transfection efficiency using Fugene 6 (Roche), according to the manufacturer's instructions. Cells were treated with or without 10, […] hours after transfection, harvested 48 hours after the transfection and luciferase/renilla activity measured using the Dual Luciferase Reporter Assay System (Promega). Each experiment was performed in triplicate.

Jagged1 = Jagged1 expression by immunoblot; format: cell-based, murine; conditions: 10 ng/ml FGF1 and 10 U/ml heparin in growth media
Description: Vector control, SJ1, CaN1, J1, Hstβ(FGF4):FGF1 and sJ1:caN1 stable NIH 3T3 cell transfectants were plated on tissue culture dishes in either normal growth media (DMEM (Gibco BRL) media, 10% bovine calf serum (BCS; Hyclone)) or normal growth media containing 10 ng/ml recombinant FGF1 and 10 U/mi heparin. Cells were harvested at confluency (based on status of vector control cells grown in normal growth media).
Because hst-β(FGF4):FGF1 stable transfectants and the sJ1 transfectants grown in FGF 1-containing media form spheroids, all cells were harvested by scraping in the presence of the growth media dn then the cells/growth media was collected into sterile 15 ml conical tubes. Cells were pelleted by centrifugation at 800×g for 5′ at 4° C. After centrifugation, the supernatant was removed and the cell pellets were washed 3× with 1×PBS. Cells were lysed in 500 μl in 20 mM tris, pH 7.5 containing 300 mM sucrose, 60 mM KCl, 15 mM NaCl, 0.5 mM EDTA, 0.5% (v/v) Triton X-100 1 mM Phenymethyl sulfonyl flouride, 0.1% SDS, 2 μg/ml aprotinin, […], 10 μg/ml leupeptin, and 1 mM sodium orthovanadate for 15 minutes on ice. Cell lysates were pelleted and the supernatant containing soluble proteins removed.
Samples were normalized to protein concentration using the BCA Protein Assay Kit (Pierce). […]

[4] = tested on: caN1/CSL-activated transcription; assay: Transient transfection assay of CSL-regulated transcription (Example 1); format: cell-based, murine; conditions: exogenous FGF1 1-10 ng/ml; caN1 transfectants
Description: NIH 3T3 cells were plated onto fibronectin-coated (10 μg/cm2) 12-well tissue culture dishes and transiently transfected at approximately 80% confluency with 500 ng of a Luciferase construct activated by 4 tandem copies of the CSL (CBF1) response element (Hsieh et al. 1996, Mol. Cell. Biol. 16: 952-959), 100 ng of the TK Renilla (Promega) construct as an internal control for transfection efficiency, and 500 ng of either vector control, sJ1 or caN1 constructs using Fugene 6 (Roche) per manufacturer's instructions. For analysis of caN1 activity in the background of NIH 3T3 stable lines, vector control, caN1, sJ1 and hst-β(FGF4):FGF1 stable transfectants were plated onto fibronectin-coated (10 μg/cm2) 12-well tissue culture dishes and transiently transfected with 500 ng of the CSL-Luciferase construct, 100 ng of the TK Renilla (Promega) construct as an internal control for transfection efficiency, and 200 ng of caN1. […] The cells were harvested 48 hours after the media change and Luciferase/Renilla activity was measured using Promega's Dual-Luciferase Reporter Assay System. The efficiency of transcription was measured and normalized in relationship to the activity of pRL-TK Renilla and the activity is reported as the ratio of Luciferase/Renilla activity. […]

FGFR1 (mouse) = FGFR1 (mouse) (UniProt P16092); assay: cell-based or functional assay
Chain of FGFR1 (mouse) (P16092 22-822): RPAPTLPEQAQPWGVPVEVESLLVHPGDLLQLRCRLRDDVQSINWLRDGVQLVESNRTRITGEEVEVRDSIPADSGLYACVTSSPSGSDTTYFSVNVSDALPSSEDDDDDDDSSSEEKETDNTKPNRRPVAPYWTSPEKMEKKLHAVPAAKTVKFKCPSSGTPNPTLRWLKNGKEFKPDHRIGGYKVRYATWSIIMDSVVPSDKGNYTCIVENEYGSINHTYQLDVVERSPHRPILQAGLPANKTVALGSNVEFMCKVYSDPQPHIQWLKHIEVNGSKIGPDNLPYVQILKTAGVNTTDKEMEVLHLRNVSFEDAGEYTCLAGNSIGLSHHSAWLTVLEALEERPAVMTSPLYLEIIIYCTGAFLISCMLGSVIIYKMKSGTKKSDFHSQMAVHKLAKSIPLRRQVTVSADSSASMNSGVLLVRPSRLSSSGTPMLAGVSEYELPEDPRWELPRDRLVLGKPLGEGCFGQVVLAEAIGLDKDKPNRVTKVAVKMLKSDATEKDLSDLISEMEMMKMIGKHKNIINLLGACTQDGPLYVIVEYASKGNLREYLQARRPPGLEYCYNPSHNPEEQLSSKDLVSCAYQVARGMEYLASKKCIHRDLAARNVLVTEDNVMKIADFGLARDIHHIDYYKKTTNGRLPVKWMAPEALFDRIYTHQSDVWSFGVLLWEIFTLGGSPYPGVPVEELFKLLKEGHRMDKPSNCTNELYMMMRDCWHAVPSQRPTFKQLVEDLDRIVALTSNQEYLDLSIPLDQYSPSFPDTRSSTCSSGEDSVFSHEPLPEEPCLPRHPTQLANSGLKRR

Notch receptor = assay: cell-based or functional assay
[5] = tested on: in vitro translation product of the Delta1 transcript
[6] = tested on: full-length human Jagged1, in vitro translation product
[7] = target: full-length human Jagged1 on NIH 3T3 cell transfectants (human) (UniProt P78504); assay: cell-based or functional assay
Chain of full-length human Jagged1 on NIH 3T3 cell transfectants (human) (P78504 34-1218 A1171G limits assumed): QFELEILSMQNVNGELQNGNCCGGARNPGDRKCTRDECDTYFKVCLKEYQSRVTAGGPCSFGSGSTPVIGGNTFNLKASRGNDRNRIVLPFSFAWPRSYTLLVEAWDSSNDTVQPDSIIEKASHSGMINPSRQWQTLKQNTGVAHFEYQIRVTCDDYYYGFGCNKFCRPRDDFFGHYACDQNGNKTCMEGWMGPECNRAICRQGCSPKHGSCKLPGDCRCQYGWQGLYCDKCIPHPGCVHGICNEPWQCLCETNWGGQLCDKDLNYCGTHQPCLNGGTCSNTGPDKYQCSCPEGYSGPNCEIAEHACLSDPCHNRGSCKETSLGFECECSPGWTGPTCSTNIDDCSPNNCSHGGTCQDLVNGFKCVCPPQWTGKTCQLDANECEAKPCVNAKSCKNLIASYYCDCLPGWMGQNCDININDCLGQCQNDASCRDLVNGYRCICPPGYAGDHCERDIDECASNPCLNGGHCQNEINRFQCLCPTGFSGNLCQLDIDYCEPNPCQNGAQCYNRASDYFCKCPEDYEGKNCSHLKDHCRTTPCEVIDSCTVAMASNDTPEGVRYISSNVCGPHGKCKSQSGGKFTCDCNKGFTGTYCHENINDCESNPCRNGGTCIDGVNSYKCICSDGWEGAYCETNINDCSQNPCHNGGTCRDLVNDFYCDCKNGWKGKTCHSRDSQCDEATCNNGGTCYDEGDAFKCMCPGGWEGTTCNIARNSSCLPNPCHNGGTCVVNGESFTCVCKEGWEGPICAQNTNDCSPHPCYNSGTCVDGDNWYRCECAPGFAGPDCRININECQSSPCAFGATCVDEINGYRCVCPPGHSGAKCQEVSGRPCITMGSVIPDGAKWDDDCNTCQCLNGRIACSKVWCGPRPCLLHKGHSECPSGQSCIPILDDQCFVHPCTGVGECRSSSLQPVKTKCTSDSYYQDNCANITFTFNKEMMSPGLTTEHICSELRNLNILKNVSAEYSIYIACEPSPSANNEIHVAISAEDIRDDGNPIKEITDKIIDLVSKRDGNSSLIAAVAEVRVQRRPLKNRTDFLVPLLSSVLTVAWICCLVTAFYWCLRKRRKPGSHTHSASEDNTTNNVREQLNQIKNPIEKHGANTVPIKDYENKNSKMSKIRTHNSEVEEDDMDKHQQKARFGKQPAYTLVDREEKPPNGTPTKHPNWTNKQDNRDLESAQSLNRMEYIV

Compound: COc1cc(OC)cc(-c2cc3cnc(N)nc3nc2NC(=O)NC(C)(C)C)c1 [PD166866]
effect on anchorage-independent growth of sDl1 NIH 3T3 cell transfectants [1]: completely inhibited
effect on colony formation in caRas cells ([1]; 1 μM): had no effect on colony formation in the caRas cells
effect on colony growth of sJ1 and dnN1 in the absence of FGF1 ([1]; 1 μM): inhibited small colony growth
effect on FGF1-mediated colony formation ([1]; 1 μM, sJ1, dnN1 and hst-β(FGF4):FGF1 transfectants): substantially reduced FGF1-mediated colony formation
effect on FGF1-induced spheroid formation ([2]; 1 μM PD166866, sJ1, dnN1 and hst-β(FGF4):FGF1 transfectants): completely abolished FGF1-induced spheroid formation

Compound: heparin [reference compound]
effect of heparin on thrombin-dependent repression of CSL1-dependent transcription ([3]; heparin 5 units/ml with thrombin 10 μg/ml, full-length Jagged1 NIH 3T3 transfectants): able to potentiate the thrombin-dependent repression of CSL1-dependent transcription
effect of heparin on CSL1-dependent transcription ([3]; heparin by itself or with 10 μM TRAP): ineffective in altering CSL1-dependent transcription

Compound: α-thrombin
proteolytic cleavage of the in vitro translation product [5]: thrombin was unable to proteolytically modify the in vitro translation product of the Delta1 transcript
proteolytic cleavage of in vitro translated (35S)-labelled Jagged1, SDS-PAGE and autoradiography [6]: cleavage of the full-length Jagged1 protein into 39 kDa and 95 kDa fragments

Compound: α-thrombin (enzyme)
CSL1-dependent transcription (dual luciferase reporter) in full-length Jagged1 NIH 3T3 cell transfectants (% of the control level) [7]: 75

The next lines start with results.

CSL1-dependent transcription, level relative to control ([3]; thrombin on full-length Jagged1 NIH 3T3 transfectants, sJ1 expression, 10 ng/ml exogenous FGF1): approximately 25 % of the control level
Compound: FGF1: recombinant human FGF1 (acidic FGF)
effect on colonies formed by sJ1 and dnN1 transfectants ([1]; 10 ng/ml FGF1 in growth media): greatly exaggerated the size of the colonies
spheroid formation in Notch-repressed (sJ1, dnN1) NIH 3T3 cells ([2]; 10 ng/ml recombinant FGF1 and 10 U/ml heparin): formed multicellular, spheroid-like structures
effect on Jagged1 expression (Jagged1): increased Jagged1 expression in all stable lines examined
effect on caN1/CSL transcription [4]: repressed caN1/CSL transcription in a dose-dependent fashion

DNA synthesis ((3H)-thymidine-labelled nuclei) in Swiss 3T3 cells expressing dnFGFR1 (FGFR1 (mouse)): 70 % reduction
Compound: recombinant FGF1 (from UniProt P05230 16-155) (ligand)

CSL1-dependent transcription (dual luciferase reporter) (% of the control level) (Notch receptor): 25
Compound: soluble Jagged1 (sJ1) (from UniProt P78504 34-1067) (ligand)
